For orientation: GI50 means the concentration that inhibits growth by half.

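Test compounds were applied to cells in 96-well plates for 48 hours at 5 doses. GI50 marks 50% less growth.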 Calls of active or inactive are those of the source. Rule as the data show it: active = GI50 up to about 1.1 µM and inactive = higher. Where only a bound is given, the exact number is not on record here.

Test systems include 786-0; A549; CCRF-CEM; HL-60; K562; M14; NCI-H460; RXF 393; SF-295; SK-MEL-2; SN12C; SW-620; TK-10; U-251; UACC-257; UACC-62.
Holding throughout (assay): DTP human tumour cell line panel, 48 h

As to `COc1ccc(COC2CC(OC)OC(C)C2OC(=O)c2ccccc2)cc1` (centres undefined), the GI50 is 74.1 µM (inactive) with 786-0; 33 µM (inactive) with A549; 30.3 µM (inactive) in the assay on CCRF-CEM; 20.7 µM (inactive) with HL-60; 27.2 µM (inactive) in the assay with K562; 34.6 µM (inactive) in the assay with M14. For the same molecule, the GI50 in the assay with NCI-H460 was 36.7 µM (inactive); in the assay on RXF 393 it was 19.1 µM (inactive); with SF-295 it was 38.5 µM (inactive); with SK-MEL-2 it was 54 µM (inactive); in the assay on SN12C, 57.4 µM (inactive); in the assay on SW-620, 46.1 µM (inactive). Further, the GI50 in the assay on TK-10 was 63.7 µM (inactive); in the assay on U-251, 35.5 µM (inactive); in the assay with UACC-257, 40.1 µM (inactive); with UACC-62, 32.9 µM (inactive).

As to `Cc1cc(S(=O)(=O)O)c(NC(=O)C(=O)Cc2cc(=O)oc3cc(O)ccc23)cc1Cl`, the GI50 in the assay with 786-0, with A549, with CCRF-CEM, in the assay on HL-60, in the assay with K562 and in the assay on M14 was > 100 µM (inactive) each time. Moreover, the GI50 with NCI-H460, with RXF 393, in the assay with SF-295, in the assay on SK-MEL-2, in the assay with SN12C and with SW-620 was > 100 µM (inactive) throughout. In addition, the GI50 in the assay with TK-10, in the assay with U-251, with UACC-257 and in the assay with UACC-62 was > 100 µM (inactive) each time.

As to `CC(C)c1ccccc1NC(=O)C(=O)Cc1nc2ccccc2s1`, the GI50 with 786-0, with A549, in the assay on CCRF-CEM, in the assay on HL-60, in the assay on M14 and with NCI-H460 was > 100 µM (inactive) in each case. In addition, the GI50 in the assay on RXF 393, in the assay on SF-295, with SK-MEL-2, with SN12C, in the assay with SW-620 and in the assay with TK-10 was > 100 µM (inactive) throughout. In addition, the GI50 with U-251, with UACC-257 and in the assay on UACC-62 was > 100 µM (inactive) throughout.

Regarding `CC(C1=CC=C2[C@@H]3CCC4CC(N(C)C)CC[C@]4(C)C3CC[C@]12C)N(C)C=O` (some centres undefined), the GI50 in the assay with 786-0 was > 100 µM (inactive); in the assay with A549 it was > 100 µM (inactive); with CCRF-CEM it was > 100 µM (inactive); in the assay with HL-60, > 100 µM (inactive); in the assay on K562 it was 36.1 µM (inactive); in the assay with M14, > 100 µM (inactive). Also, the GI50 is > 10 µM (inactive) with NCI-H460; > 100 µM (inactive) in the assay on RXF 393; > 100 µM (inactive) in the assay with SF-295; > 100 µM (inactive) in the assay on SK-MEL-2; > 100 µM (inactive) in the assay on SN12C; > 100 µM (inactive) in the assay on SW-620. Moreover, the GI50 in the assay on TK-10, in the assay on U-251 and in the assay with UACC-62 was > 100 µM (inactive) each time.

For the molecule `C=C(CCCCC)CN1CCCC1C(C)=O` (centres undefined), the GI50 is 35.5 µM (inactive) with 786-0; 32.9 µM (inactive) in the assay with A549; 12.9 µM (inactive) in the assay on CCRF-CEM; 4.32 µM (inactive) with HL-60; 15 µM (inactive) in the assay with K562; 41.5 µM (inactive) in the assay with M14. The GI50 is 29 µM (inactive) in the assay on NCI-H460; 34.1 µM (inactive) in the assay with RXF 393; 26.8 µM (inactive) in the assay with SF-295; 26.1 µM (inactive) in the assay with SK-MEL-2; 29.1 µM (inactive) in the assay on SN12C; > 57.9 µM (inactive) in the assay on SW-620. The GI50 with TK-10 is 38.1 µM (inactive); with U-251, 30.6 µM (inactive); in the assay on UACC-257, 26.6 µM (inactive); with UACC-62 it was 25.4 µM (inactive).

Take `CCC1CN2CCc3cc(OC)c(OC)cc3C2CC1CC1c2cc(OC)c(OC)cc2CCN1C(=O)CNC(=O)OC(C)(C)C` (centres undefined): the GI50 with 786-0 was 4.08 µM (inactive); with A549 it was 4.57 µM (inactive); with CCRF-CEM it was 3.34 µM (inactive); in the assay with HL-60, 4.14 µM (inactive); in the assay on K562, 3.34 µM (inactive); with M14, > 10 µM (inactive). For the same molecule, the GI50 in the assay with NCI-H460 is 6.49 µM (inactive); with RXF 393 it was 17.5 µM (inactive); in the assay on SF-295, 3.9 µM (inactive); in the assay on SK-MEL-2, 12.4 µM (inactive); in the assay with SN12C, 24.1 µM (inactive); in the assay on SW-620 it was 4.07 µM (inactive). Also, the GI50 with TK-10 is 28.6 µM (inactive); in the assay on U-251, 5.51 µM (inactive); in the assay on UACC-257, 21.4 µM (inactive); in the assay on UACC-62, 19.7 µM (inactive).

On to `Cn1cc(C(=O)c2ccccc2)cc(C(=O)c2ccccc2)c1=O`, for which the GI50 in the assay with 786-0, with A549, with CCRF-CEM, with HL-60, in the assay with K562 and in the assay with M14 was > 100 µM (inactive) throughout. For the same molecule, the GI50 in the assay on NCI-H460, with RXF 393, in the assay with SF-295, in the assay with SK-MEL-2, with SN12C and in the assay with SW-620 was > 100 µM (inactive) throughout. The GI50 in the assay on TK-10, with U-251, in the assay on UACC-257 and with UACC-62 was > 100 µM (inactive) in each case.

Regarding `COC(=O)/C(C#N)=C1\CCC(OC)N1` (centres undefined), the GI50 with 786-0, in the assay on A549, with CCRF-CEM, with HL-60, in the assay on K562 and in the assay on M14 was > 100 µM (inactive) in each case. For the same molecule, the GI50 in the assay on NCI-H460 was > 100 µM (inactive); in the assay on RXF 393, 47.2 µM (inactive); with SF-295 it was > 100 µM (inactive); in the assay on SK-MEL-2 it was > 100 µM (inactive); in the assay with SN12C it was > 100 µM (inactive); in the assay on SW-620, > 100 µM (inactive). Further, the GI50 in the assay with TK-10, with U-251, with UACC-257 and with UACC-62 was > 100 µM (inactive) throughout.

With `Cc1nc(Nc2ccc(Cl)cc2)sc1C(=O)Nc1cccc2c(=O)[nH][nH]c(=O)c12`, the GI50 in the assay with 786-0 was 19 µM (inactive); with A549, 33.1 µM (inactive); in the assay with CCRF-CEM, 16.9 µM (inactive); in the assay with HL-60, 8.75 µM (inactive); in the assay on K562, 1.26 µM (inactive); with M14, 17.6 µM (inactive). The GI50 in the assay with NCI-H460 was 25.8 µM (inactive); in the assay on RXF 393 it was 28.6 µM (inactive); with SF-295, 24.7 µM (inactive); with SK-MEL-2 it was 30.4 µM (inactive); in the assay on SN12C, 36.1 µM (inactive); in the assay with SW-620 it was 25.5 µM (inactive). The GI50 is > 100 µM (inactive) in the assay on TK-10, 34.3 µM (inactive) in the assay on U-251, 96.8 µM (inactive) in the assay with UACC-257 and 0.439 µM (active) with UACC-62.

In the case of `N#C/N=C(/N)NCN/C(N)=N\C#N`, the GI50 was 23.1 µM (inactive) in the assay on 786-0; > 100 µM (inactive) in the assay with A549; > 100 µM (inactive) in the assay with CCRF-CEM; > 100 µM (inactive) in the assay on HL-60; 43.7 µM (inactive) in the assay with K562; > 100 µM (inactive) in the assay on M14. Also, the GI50 is > 100 µM (inactive) with NCI-H460; 73.3 µM (inactive) with RXF 393; > 100 µM (inactive) in the assay on SF-295; > 100 µM (inactive) in the assay on SK-MEL-2; > 100 µM (inactive) in the assay with SN12C; 17.4 µM (inactive) in the assay with SW-620. Also, the GI50 with TK-10, with U-251, with UACC-257 and in the assay with UACC-62 was > 100 µM (inactive) each time.

Take `O=C(O)CCCCCO`: the GI50 with 786-0, with A549, in the assay with CCRF-CEM, with HL-60, with K562 and with M14 was > 100 µM (inactive) in each case. In addition, the GI50 with NCI-H460, in the assay with RXF 393, with SF-295, in the assay with SK-MEL-2, in the assay with SN12C and in the assay on SW-620 was > 100 µM (inactive) in each case. Also, the GI50 in the assay with TK-10, in the assay on U-251, with UACC-257 and with UACC-62 was > 100 µM (inactive) in each case.

`CC1=C(C(=O)Nc2ccc([N+](=O)[O-])cc2)C(c2ccccc2F)C(C(=O)Nc2ccc([N+](=O)[O-])cc2)=C(C)N1`: the GI50 is 20.8 µM (inactive) in the assay with 786-0; 9.64 µM (inactive) in the assay on A549; 7 µM (inactive) with CCRF-CEM; 4.7 µM (inactive) in the assay on HL-60; 6.61 µM (inactive) in the assay on K562; 15.1 µM (inactive) with M14. Besides, the GI50 in the assay on NCI-H460 was 13.6 µM (inactive); with RXF 393 it was 6.75 µM (inactive); in the assay with SF-295 it was 20.3 µM (inactive); in the assay with SK-MEL-2, 9.31 µM (inactive); in the assay on SN12C, 8.18 µM (inactive); in the assay with SW-620, 21.8 µM (inactive). Moreover, the GI50 was 23.7 µM (inactive) in the assay on TK-10, 14.9 µM (inactive) in the assay on U-251 and 15 µM (inactive) in the assay with UACC-257.

With `COc1ccc(O)cc1` [MEQUINOL], the GI50 in the assay on 786-0 was 92 µM (inactive); in the assay with A549 it was > 100 µM (inactive); with CCRF-CEM, 60.3 µM (inactive); with HL-60, 44.1 µM (inactive); in the assay with K562, 68.1 µM (inactive); in the assay on M14, 53.5 µM (inactive). Further, the GI50 with NCI-H460 is 97.1 µM (inactive); in the assay on RXF 393 it was > 100 µM (inactive); in the assay with SK-MEL-2, > 100 µM (inactive); in the assay on SN12C it was > 100 µM (inactive); in the assay with SW-620 it was > 100 µM (inactive); with TK-10, > 100 µM (inactive). The GI50 is > 100 µM (inactive) with U-251, > 100 µM (inactive) in the assay with UACC-257 and 24.8 µM (inactive) in the assay with UACC-62.

These data come from ChEMBL document CHEMBL1201862, “PubChem BioAssay data set” (2004).
